Assay results from patent publication US20050244938A1, “Manzamine-producing actinomycetes” (priority 2002, published 2005).
In brackets after ≈: the same amount, converted by molar mass. Read-outs that look alike come from different tables or passages of the source.

Assays:
[1] = system: Mycobacterium tuberculosis (H37Rv); test: microplate Alamar Blue assay, in vitro activity against Mycobacterium tuberculosis; type: cell-based
[2] = system: Plasmodium falciparum (D6 clone); test: in vitro antimalarial activity, D6 clone; type: cell-based; details: for IC50: Plasmodium falciparum
[3] = system: P. falciparum (chlorine-resistant W2 clone); test: in vitro antimalarial activity, resistant W2 clone; type: cell-based, Plasmodium falciparum; details: NA = not active; for IC50: Plasmodium falciparum, read-out: P. falciparum (chlorine-resistant W2 clone) in vitro IC 50
[4] = system: Fusarium oxysporium ATCC 7601; test: microbial transformation study to model human metabolism; details: monitored by TLC, metabolite identical to ent-12,34-oxamanzamine F (2)
Experimental: (§1) In order to model the human metabolism of the manzamines and to generate additional analogs for biological evaluation, microbial transformation studies were performed for ent-8-hydroxymanzamine A (El Sayed, et al., 2001) (3). Thirty-three growing microbial cultures were screened for their potential to bioconvert 3 to new metabolites.

[5] = system: Nocardia sp. ATCC 21145; test: as above; details: monitored by TLC, metabolite identical to ent-12,34-oxamanzamine F (2)
Experimental: as §1

[6] = toxicity (no method); details: qualitative statement
[7] = D6 clone, in vitro, NA = not active

Row | Molecule | Mycobacterium tuberculosis (H37Rv) MIC [1] [µg/mL] | Plasmodium falciparum (D6 clone) in vitro IC 50 [2, 7] [ng/mL] | P. falciparum (chlorine-resistant W2 clone) in vitro IC 50 [3] [ng/mL] | other results
1 | O=C1CCCN2[C@@H](CC1)C[C@]13CN4CCCC/C=C\CC[C@](O)(C=C(c5nccc6c5[nH]c5ccccc56)[C@@H]1CC4)[C@H]23 [Manzamine E, manzamine E] | 3.76 | 3400 | 4760 | –
2 | O=CC1=C[C@@]2(O)CC/C=C\CCCCN3CC[C@@H]1[C@]1(CC4/C=C\CCCCN4[C@H]12)C3 (some centres unmarked) [Ircinal A, ircinal A] | 30.2 | – | – | –
3 | ent-8-hydroxymanzamine A [ent-8-hydroxymanzamine A (3)] | 3.13 | – | – | bioconversion by growing microbial culture [4]: exhaustively metabolize; bioconversion by growing microbial culture [5]: exhaustively metabolize
4 | CCN(CC)CCCC(C)Nc1ccnc2cc(Cl)ccc12 (centres unmarked) [Chloroquine] | – | – | – | IC50 ([2]; D6, read-out: Plasmodium falciparum (D6 clone) in vitro IC 50): 0.0155 µg/mL (≈ 0.0485 µM); IC50 [3]: 0.17 µg/mL (≈ 0.531 µM)
5 | O[C@]12C=C(c3nccc4c3[nH]c3ccccc34)C3CCN(CCCC/C=C\CC1)C[C@@]31C[C@]34CC[C@H](CCCN3[C@H]12)O4 (some centres unmarked) [6-Deoxymanzamine X, 6-deoxymanzamine X] | 1.77 | 1300 | 1400 | –
6 | O[C@]12C=C(c3nccc4c3[nH]c3ccccc34)[C@@H]3CCN(CCCC/C=C\CC1)C[C@@]31C[C@@H]3/C=C\CCCCN3[C@H]12 [Manzamine A, manzamine A] | 1.53 | 4.5 | 8.0 | –
7 | ircinol A | 1.93 | 2400 | 3100 | toxicity [6]: minimal toxicity
8 | C1=C(c2nccc3c2[nH]c2ccccc23)[C@@H]2CCN3CCCC/C=C\CC[C@]14O[C@@]15/C=C\CCCCN1[C@@H]4[C@]2(C3)C5 [12,34-oxamanzamine A (4), 12,34-oxamanzamine A] | – | 4760 | – | –
9 | ent-12,34-oxamanzamine E [ent-12,34-Oxamanamine E (1)] | 128 | – | – | –
10 | (+)-8-hydroxymanzamine A | 0.91 | 6.0 | 8.0 | –
11 | O=C1CCCN2[C@@H](CC1)C[C@]13CN4CCCC/C=C\CC[C@](O)(C=C(c5nccc6c5[nH]c5c(O)cccc56)C1CC4)[C@H]23 (some centres unmarked) [Manzamine F, manzamine F] | 2.56 | 780 | 1700 | –
12 | O=C1CCCN2[C@H]3[C@]45CN6CCCC/C=C\CC[C@]3(C=C(c3nccc7c3[nH]c3c(O)cccc37)[C@H]4CC6)O[C@]2(CC1)C5 (single isomer, unassigned; ent-12) [ent-12,34-Oxamanzamine F (2), ent-12,34-oxamanzamine F] | 12.5 | 840 | 1100 | –
13 | C[C@@H]1CC[C@H]2[C@@H](C)C(=O)O[C@@H]3O[C@@]4(C)CC[C@@H]1[C@]32OO4 [Artemisinin] | – | – | – | IC50 ([2]; D6 clone, in vitro, NA = not active, read-out: Plasmodium falciparum (D6 clone) in vitro IC 50): 0.01 µg/mL (≈ 0.0354 µM); IC50 [3]: 0.0063 µg/mL (≈ 0.0223 µM)
